Measurements taken from patent US12061201B2, “Fluorescent probes for the visualization of FtsZ in gram-positive and gram-negative bacterial pathogens” (Rutgers, The State University of New Jersey, priority 2019, dated 2024).
“Also recorded” adds a separate entry of the source. Like-named read-outs stand apart in the source and are kept apart here.

What was measured:
[1] = molecular target: Klebsiella pneumoniae FtsZ (KpFtsZ) (Klebsiella pneumoniae, UniProt A0A0H3GRR0); assay: Fluorescence anisotropy binding of BOFP to FtsZ; conditions: for Kd: 50 mM Tris-HCl (pH 7.6), 50 mM KCl
Description: Fluorescence anisotropy assay for determining the affinities and thermodynamics associated with the binding of BOFP to FtsZ proteins. Fluorescence anisotropy experiments were performed using an AVIV model ATF105 spectrofluorometer at 15, 25, or 37° C. In these experiments, bandwidths were set to 4 nm in both the excitation and emission directions, with the excitation and emission wavelengths being set at 488 nm and 510 nm, respectively. BOFP (0.1 μM) was titrated with increasing concentrations (ranging from 0 to 12 μM) of FtsZ in 120 μL of buffer containing 50 mM Tris-HCl (pH 7.6) and 50 mM KCl. After each protein addition, the samples were equilibrated for 3 minutes, whereupon the fluorescence anisotropy was measured.
[formula] In this equation, r0 is the anisotropy of the protein-free compound, r∞ is the anisotropy of the compound in the presence of an infinite concentration of FtsZ, [C]tot is the total concentration of the compound, and [P]tot is the total concentration of protein with each addition. These analyses yielded the equilibrium dissociation constant (Kd) for each binding reaction.
The binding free energy (ΔG) at temperature T was derived from the corresponding Kd value determined at T using the following relationship:
[formula] The binding enthalpy (ΔH) and entropy (ΔS) were derived from linear fits of the ln(1/Kd) vs. 1/T plots shown in FIGS. 3f and 5e using the following relationship:
A quartz ultra-micro cell (Hellma) with a 2×5 mm aperture and a 15 mm center height was used for all measurements. The pathlengths in the excitation and emissions directions were 1 and 0.2 cm, respectively. All steady-state anisotropy experiments were conducted in at least triplicate, with the reported anisotropies reflecting the average values.

[2] = test system: FtsZ in A. baumannii ATCC 19606 cells; assay: Fluorescence microscopy FtsZ visualization in live cells; format: cell-based; conditions: 1 μg/mL BOFP for 5 minutes, no pentamidine
Description: (§1) Fluorescence microscopy assay for visualizing FtsZ and monitoring cell division in live Gram-positive and Gram-negative bacterial cells using BOFP. All fluorescence microscopy experiments were conducted using an Olympus BX50 microscope equipped with an X-cite Exacte 200W mercury lamp, a 100× Olympus UPLSAPO oil immersion objective (1.40 aperture), and a Chroma ET-EGFP (FITC/Cy2) filter. Images were captured using a QImaging Retiga R3 charge-coupled device (CCD) camera and the Ocular-Version 2.0 software package (QImaging).
(§2) For visualizing FtsZ in Gram-negative bacteria using BOFP, E. coli ATCC 25922, K. pneumoniae ATCC 13883, P. aeruginosa ATCC 27853, and A. baumannii ATCC 19606 were grown to log-phase in CAMH broth. For each Gram-negative bacterial strain, a total of 1 mL of cell culture was centrifuged at 15,000×g for 1 minute and washed twice with 1 mL of Tris-buffered saline (TBS) composed of 50 mM Tris-HCl pH 7.6 and 150 mM NaCl. […] The resuspended cells were then incubated in the dark for 5 minutes at room temperature, centrifuged at 15,000×g for 1 minute, washed twice with 1 mL of TBS, and subsequently resuspended in 200 μL of TBS. This final cell suspension was then prepared for microscopy as described above for the Gram-positive bacterial strains.

[3] = molecular target: T1, FtsZ in E. coli ATCC 25922 cells (Escherichia coli, UniProt P0A9A6); assay: as above; format: cell-based; conditions: 1 μg/mL BOFP for 5 minutes, no pentamidine
T1 construct: endogenous in cells; host or cells: E. coli ATCC 25922
Description: as §1, §2

[4] = test system: FtsZ in K. pneumoniae ATCC 13883 cells; assay: as above; format: cell-based
Description: as §1, §2

[5] = molecular target: T2, FtsZ in P. aeruginosa ATCC 27853 cells (Pseudomonas aeruginosa, UniProt P47204); assay: as above; format: cell-based; conditions: 1 μg/mL BOFP for 5 minutes, no pentamidine
T2 construct: endogenous in cells; host or cells: P. aeruginosa ATCC 27853
T2 sequence (P47204 1-394): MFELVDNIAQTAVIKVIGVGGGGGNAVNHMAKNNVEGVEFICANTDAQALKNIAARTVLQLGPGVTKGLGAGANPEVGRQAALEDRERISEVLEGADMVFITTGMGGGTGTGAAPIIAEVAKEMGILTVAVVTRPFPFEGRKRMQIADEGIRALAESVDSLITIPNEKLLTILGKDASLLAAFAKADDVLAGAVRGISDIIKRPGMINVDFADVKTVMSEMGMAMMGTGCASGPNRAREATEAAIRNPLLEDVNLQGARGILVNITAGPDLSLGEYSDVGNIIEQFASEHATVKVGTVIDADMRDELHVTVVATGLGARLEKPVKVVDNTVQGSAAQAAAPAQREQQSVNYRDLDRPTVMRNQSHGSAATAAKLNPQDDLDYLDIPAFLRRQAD
Description: as §1, §2

S. aureus FtsZ (SaFtsZ) = molecular target: T3, S. aureus FtsZ (SaFtsZ) (Staphylococcus aureus, UniProt P0A031); assay: Fluorescence anisotropy binding of BOFP to FtsZ; conditions: 0.1 μM BOFP, 10 μM SaFtsZ, 37° C.
T3 sequence (P0A031 1-390): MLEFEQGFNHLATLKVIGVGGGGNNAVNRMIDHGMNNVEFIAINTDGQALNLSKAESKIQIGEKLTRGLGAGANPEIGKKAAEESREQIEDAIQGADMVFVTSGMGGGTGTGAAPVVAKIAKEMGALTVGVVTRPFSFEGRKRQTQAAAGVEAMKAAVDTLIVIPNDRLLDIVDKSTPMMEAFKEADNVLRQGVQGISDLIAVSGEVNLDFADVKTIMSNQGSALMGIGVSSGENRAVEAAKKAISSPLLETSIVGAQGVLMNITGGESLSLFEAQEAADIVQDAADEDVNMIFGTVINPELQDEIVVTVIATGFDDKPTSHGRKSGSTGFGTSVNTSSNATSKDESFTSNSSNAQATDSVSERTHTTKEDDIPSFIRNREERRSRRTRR

[6] = linear fit of ln(1/Kd) vs. 1/T, Eq. 3

Sequence of Klebsiella pneumoniae FtsZ (KpFtsZ) (A0A0H3GRR0 entry or part of it): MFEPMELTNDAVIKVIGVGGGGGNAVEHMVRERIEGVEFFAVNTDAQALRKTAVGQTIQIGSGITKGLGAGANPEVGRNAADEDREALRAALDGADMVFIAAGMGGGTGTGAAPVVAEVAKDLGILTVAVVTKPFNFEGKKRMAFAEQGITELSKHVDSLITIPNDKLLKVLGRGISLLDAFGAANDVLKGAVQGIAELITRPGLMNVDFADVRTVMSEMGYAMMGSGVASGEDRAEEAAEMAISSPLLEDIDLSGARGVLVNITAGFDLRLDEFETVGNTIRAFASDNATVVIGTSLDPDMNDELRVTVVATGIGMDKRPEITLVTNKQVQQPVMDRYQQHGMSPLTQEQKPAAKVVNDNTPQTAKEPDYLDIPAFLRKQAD
T1 sequence (P0A9A6 whole entry): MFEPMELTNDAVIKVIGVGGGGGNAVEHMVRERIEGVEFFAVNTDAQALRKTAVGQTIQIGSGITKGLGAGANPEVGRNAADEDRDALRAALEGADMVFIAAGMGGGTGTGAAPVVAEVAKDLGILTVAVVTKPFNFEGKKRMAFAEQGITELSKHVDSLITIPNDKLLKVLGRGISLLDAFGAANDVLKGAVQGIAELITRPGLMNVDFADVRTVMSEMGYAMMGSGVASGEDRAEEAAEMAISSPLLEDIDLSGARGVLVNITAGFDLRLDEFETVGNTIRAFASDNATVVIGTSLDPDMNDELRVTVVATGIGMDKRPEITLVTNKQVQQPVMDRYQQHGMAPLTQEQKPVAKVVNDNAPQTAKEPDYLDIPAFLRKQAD

For `CC1=CC(C)=[N+]2C1=Cc1ccc(CCC(=O)OCC(Oc3ccc(F)c(C(N)=O)c3F)c3nc(-c4ccc(C(F)(F)F)cc4)c(Br)o3)n1[B-]2(F)F` (centres unmarked) [BOFP, 2-(5-bromo-4-(4-(trifluoromethyl)phenyl)-oxazol-2-yl)-2-(3-carbamoyl-2,4-difluorophenoxy)ethyl 3-(5,5-difluoro-7,9-dimethyl-5H-5λ^4,6λ^4-dipyrrolo[1,2-c:2′,1′-f][1,3,2]diazaborinin-3-yl)propanoate], the “ΔH contribution to the observed ΔG of binding” value [1] was over 50%, the Kd ([1]; 15° C., read-out: Kd −15° C.) was 420 ± 50 nM and the Kd ([1]; 25° C., read-out: Kd −25° C.) was 580 ± 40 nM. The Kd ([1]; 37° C., read-out: Kd −37° C.) was 820 ± 40 nM, the ΔG ([1]; T = 310K (37° C.), Eq. 2) was -8.6 ± 0.1 kcal/mol and the ΔH [1, 6] was -5.4 ± 0.1 kcal/mol. The ΔS [1, 6] was “+10.5 ± 0.1 cal/mol · K”, the “FtsZ labeling in live cells without pentamidine” value [2] was “little or no FtsZ labeling” and the “FtsZ labeling in live cells without pentamidine” value [3] was “little or no FtsZ labeling”. For the same compound, the “FtsZ labeling in live cells without pentamidine” value ([4]; 1 μg/mL BOFP for 5 minutes, no pentamidine) was “little or no FtsZ labeling”, the “FtsZ labeling (fluorescence staining) in live cells” value ([4]; 1 μg/mL BOFP with 3.5 mg/mL pentamidine isethionate, 5 minutes) was “bright fluorescence staining is visible both at midcell and along the cell periphery” and the “FtsZ labeling in live cells without pentamidine” value [5] was “little or no FtsZ labeling”. The “effect of both GMPCPP and MgCl2 on the anisotropy of SaFtsZ-bound BOFP” value (S. aureus FtsZ (SaFtsZ); GMPCPP 0.1 mM and MgCl2 10 mM) was “modest increase in the anisotropy” and the “effect of GMPCPP alone or MgCl2 alone on the anisotropy of SaFtsZ-bound BOFP” value (S. aureus FtsZ (SaFtsZ); GMPCPP 0.1 mM or MgCl2 10 mM) was “neither GMPCPP alone (at 0.1 mM) nor MgCl2 alone (at 10 mM) has a significant effect; also recorded: independent of either GTP or magnesium”.
